Data taken from ChEMBL document CHEMBL4837230, “Thiophene-2-carboxamide derivatives of anthraquinone: A new potent antitumor chemotype” (Eur J Med Chem, 2021).
Active and inactive are the calls of the source. No cut-off for these calls is given here.

Tests used:
K562 [1] = test: Cytotoxicity in human K562 cells assessed as reduction in cell viability at 2.5 uM incubated with compound for 60 mins followed by cell washing and measured after72 hrs by propidium iodide staining based flow cytometric analysis; assay type: functional; details: 1 h
K562 [2] = test: Cytotoxicity in human K562 cells assessed as reduction in cell viability at 1 uM incubated for 72 hrs by propidium iodide staining based flow cytometric analysis; assay type: functional
K562 [3] = test: Induction of cell cycle arrest in human K562 cells assessed as increase in accumulation at S phase at 2.5 uM after 6 hrs by flow cytometric analysis (reference value: 37%); assay type: functional
K562 [4] = test: Induction of cell cycle arrest in human K562 cells assessed as increase in accumulation at S phase at 2.5 uM after 4 hrs by flow cytometric analysis (reference value: 47.1%); assay type: functional
CAPAN-1 = test: Cytotoxicity in human CAPAN-1 cells assessed as reduction in cell viability incubated for 72 hrs by MTT assay; assay type: functional, cell-based; details: CAPAN-1, 72 h
K562 [5] = test: Cytotoxicity in human K562 cells assessed as reduction in cell viability at 1 uM incubated with compound for 120 mins followed by cell washing and measured after 72 hrs by propidium iodide staining based flow cytometric analysis; assay type: functional; details: 2 h
Fibroblast = test: Cytotoxicity in human Fibroblast cells assessed as reduction in cell viability incubated for 72 hrs by MTT assay; assay type: functional, cell-based
K562 [6] = test: Induction of cell cycle arrest in human K562 cells assessed as increase in accumulation at sub-G1 phase at 2.5 uM after 4 hrs by flow cytometric analysis (reference value: 14%); assay type: functional
K562 [7] = test: Induction of mitochondrial membrane potential loss in human K562 cells at 7.5 uM after 6 hrs by Mitotracker Red dye based flow cytometric analysis; assay type: functional, cell-based
K562 [8] = test: Induction of cell cycle arrest in human K562 cells assessed as increase in accumulation at G0/G1 phase at 2.5 uM after 6 hrs by flow cytometric analysis (reference value: 14.1%); assay type: functional
K562 [9] = test: Induction of apoptosis in human K562 cells assessed as activation of PARP cleavage at 2.5 uM measured after 6 hrs by Western blot analysis; assay type: functional, cell-based
NCI-H460 = test: Cytotoxicity in human NCI-H460 cells assessed as reduction in cell viability incubated for 72 hrs by MTT assay; assay type: functional, cell-based; details: NCI-H460, 72 h
K562 [10] = test: Induction of cell cycle arrest in human K562 cells assessed as increase in accumulation at sub-G1 phase at 5 uM after 48 hrs by propidium iodide staining based flow cytometric analysis (reference value: 8.4%); assay type: functional
K562 [11] = test: Induction of cell cycle arrest in human K562 cells assessed as increase in accumulation at sub-G1 phase at 2.5 uM after 24 hrs by propidium iodide staining based flow cytometric analysis (reference value: 8.4%); assay type: functional
K562 [12] = test: Induction of apoptosis in human K562 cells assessed as late apoptotic cells after 24 hrs by Annexin V-APC/PI double staining based flow cytometric analysis (reference value: 2.6%); assay type: functional
K562 [13] = test: Induction of mitochondrial membrane potential loss in human K562 cells at 2.5 uM after 6 hrs by Mitotracker Red dye based flow cytometric analysis(reference value: 6.4 %); assay type: functional
K562 [14] = test: Induction of cell cycle arrest in human K562 cells assessed as increase in accumulation at G2/M phase at 2.5 uM after 6 hrs by flow cytometric analysis (reference value: 26.8%); assay type: functional
K562 [15] = test: Cytotoxicity in human K562 cells assessed as reduction in cell viability incubated for 72 hrs by MTT assay; assay type: functional, cell-based; details: K562, 72 h
HCT-116 [16] = test: Cytotoxicity against p53 knock out human HCT-116 cells assessed as reduction in cell viability incubated for 72 hrs by MTT assay; assay type: functional, cell-based; details: HCT-116, 72 h
K562 [17] = test: Induction of cell cycle arrest in human K562 cells assessed as increase in accumulation at sub-G1 phase at 0.5 uM after 24 hrs by propidium iodide staining based flow cytometric analysis (reference value: 8.4%); assay type: functional
K562 [18] = test: Induction of apoptosis in human K562 cells assessed as necrotic cells after 3 hrs by Annexin V-APC/PI double staining based flow cytometric analysis (reference value: 6.3%); assay type: functional
K562 [19] = test: Induction of cell cycle arrest in human K562 cells assessed as increase in accumulation at S phase at 2.5 uM by flow cytometric analysis (reference value: 11.2%); assay type: functional
[20] = Drug localization in lysosome of mouse NIH3T3 cells at 1 uM incubated for 5 mins by lyso-tracker red based confocal microscopic method; assay type: ADME, cell-based; details: nih3t3, 5 min
K562 [21] = test: Cytotoxicity in human K562 cells assessed as reduction in cell viability at 2.5 uM incubated with compound for 120 mins followed by cell washing and measured after 72 hrs by propidium iodide staining based flow cytometric analysis; assay type: functional; details: 2 h
HCT-116 [22] = test: Cytotoxicity in human HCT-116 cells assessed as reduction in cell viability incubated for 72 hrs by MTT assay; assay type: functional, cell-based; details: HCT-116, 72 h
K562 [23] = test: Induction of apoptosis in human K562 cells assessed as viable cells after 24 hrs by Annexin V-APC/PI double staining based flow cytometric analysis (reference value: 91%); assay type: functional
K562 [24] = test: Induction of cell cycle arrest in human K562 cells assessed as increase in accumulation at G0/G1 phase at 2.5 uM by flow cytometric analysis (reference value: 60.9%); assay type: functional
[25] = Cytotoxicity in human DND41 cells assessed as reduction in cell viability incubated for 72 hrs by MTT assay; assay type: functional, cell-based; details: DND41, 72 h
K562 [26] = test: Induction of mitochondrial membrane potential loss in human K562 cells at 2.5 uM after 3 hrs by Mitotracker Red dye based flow cytometric analysis(reference value: 7.8 %); assay type: functional
K562 [27] = test: Induction of cell cycle arrest in human K562 cells assessed as increase in accumulation at sub-G1 phase at 2.5 uM after 6 hrs by flow cytometric analysis (reference value: 22.1%); assay type: functional
[28] = Drug localization in nuclei of mouse NIH3T3 cells at 1 uM incubated for 5 to 60 mins by Hoechst 33258 staining based laser confocal microscopy; assay type: ADME, cell-based; details: nih3t3, 1 µM, time 5-60 min
K562 [29] = test: Induction of cell cycle arrest in human K562 cells assessed as increase in accumulation at sub-G1 phase at 2.5 uM after 2 hrs by flow cytometric analysis (reference value: 15.2%); assay type: functional
K562 [30] = test: Induction of cell cycle arrest in human K562 cells assessed as increase in accumulation at G0/G1 phase at 2.5 uM after 4 hrs by flow cytometric analysis (reference value: 19.2%); assay type: functional
K562 [31] = test: Induction of cell cycle arrest in human K562 cells assessed as increase in accumulation at G0/G1 phase at 2.5 uM after 2 hrs by flow cytometric analysis (reference value: 46.5%); assay type: functional
Calf thymus DNA = test: Binding affinity to calf thymus double strand DNA incubated for 5 mins by spectrophotometry; assay type: nucleic-acid assay; details: Bos taurus
K562 [32] = test: Cytotoxicity in human K562 cells assessed as reduction in cell viability at 1 uM incubated with compound for 60 mins followed by cell washing and measured after 72 hrs by propidium iodide staining based flow cytometric analysis; assay type: functional
K562 [33] = test: Induction of ROS generation in human K562 cells at 2.5 uM after 15 to 75 mins by Deep Red dye based flow cytometry method; assay type: functional, cell-based; details: time 15-75 min

Drug uptake [20]: Active
Drug uptake [28]: Not Active
Activity (Calf thymus DNA): inactive
SMILES: N[C@H]1CCN(C(=O)c2cc3c(O)c4c(c(O)c3s2)C(=O)c2ccccc2C4=O)C1
Activity (K562 [1]): 63.4%
Activity (K562 [2]): 79.9%
Activity (K562 [3]): 29.8%
Activity (K562 [4]): 40.1%
IC50 (CAPAN-1): 0.7 µM
Activity (K562 [5]): 56.4%
IC50 (Fibroblast): 1.4 µM
Activity (K562 [6]): 14.5%
Activity (K562 [7]): inactive
Activity (K562 [8]): 31.7%
Activity (K562 [9]): Active
IC50 (NCI-H460): 0.4 µM
Activity (K562 [10]): 89.7%
Activity (K562 [11]): 76.7%
Activity (K562 [12]): 49.3%
Activity (K562 [13]): 33.3%
Activity (K562 [14]): 13.9%
IC50 (K562 [15]): 0.3 µM
IC50 (HCT-116 [16]): 0.5 µM
Activity (K562 [17]): 18.7%
Activity (K562 [18]): 38.2%
Activity (K562 [19]): 12%
Activity (K562 [21]): 76.5%
IC50 (HCT-116 [22]): 0.5 µM
Activity (K562 [23]): 1.8%
Activity (K562 [24]): 59.1%
IC50 [25]: 0.4 µM
Activity (K562 [26]): 19.8%
Activity (K562 [27]): 24.6%
Activity (K562 [29]): 15.9%
Activity (K562 [30]): 28.1%
Activity (K562 [31]): 40.4%
Activity (K562 [32]): 6.3%
Activity (K562 [33]): inactive
